Experimental data taken from ChEMBL document CHEMBL1155059, “Synthesis and biological evaluation of trisubstituted imidazole derivatives as inhibitors of p38alpha mitogen-activated protein kinase” (Bioorg Med Chem Lett, 2008).

Tests used:
[1] = molecular target: Mitogen-activated protein kinase 14 (Homo sapiens, UniProt Q16539); experiment: Inhibition of human recombinant p38alpha MAPK expressed in Escherichia coli by radioisotopic protein kinase assay
[2] = molecular target: T1, TGF-beta receptor type-1 (Homo sapiens, UniProt P36897); experiment: Inhibition of GST fused human recombinant ALK5 expressed in Sf9 cells by radioisotopic protein kinase assay
T1 sequence (P36897 whole entry): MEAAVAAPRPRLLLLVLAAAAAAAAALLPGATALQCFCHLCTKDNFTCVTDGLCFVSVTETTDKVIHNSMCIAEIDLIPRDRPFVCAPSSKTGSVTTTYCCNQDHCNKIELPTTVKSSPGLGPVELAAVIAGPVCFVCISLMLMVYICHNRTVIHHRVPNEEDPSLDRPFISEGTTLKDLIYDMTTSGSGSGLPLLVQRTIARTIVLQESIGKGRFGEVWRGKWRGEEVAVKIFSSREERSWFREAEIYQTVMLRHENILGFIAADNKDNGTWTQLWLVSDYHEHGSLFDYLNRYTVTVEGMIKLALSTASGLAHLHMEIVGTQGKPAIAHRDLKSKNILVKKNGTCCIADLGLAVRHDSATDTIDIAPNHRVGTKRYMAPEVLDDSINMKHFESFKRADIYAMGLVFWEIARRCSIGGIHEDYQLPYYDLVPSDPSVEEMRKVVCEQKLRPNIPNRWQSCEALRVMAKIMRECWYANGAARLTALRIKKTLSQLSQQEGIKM

Sequence of Mitogen-activated protein kinase 14 (Q16539 whole entry, the tested form may be a part): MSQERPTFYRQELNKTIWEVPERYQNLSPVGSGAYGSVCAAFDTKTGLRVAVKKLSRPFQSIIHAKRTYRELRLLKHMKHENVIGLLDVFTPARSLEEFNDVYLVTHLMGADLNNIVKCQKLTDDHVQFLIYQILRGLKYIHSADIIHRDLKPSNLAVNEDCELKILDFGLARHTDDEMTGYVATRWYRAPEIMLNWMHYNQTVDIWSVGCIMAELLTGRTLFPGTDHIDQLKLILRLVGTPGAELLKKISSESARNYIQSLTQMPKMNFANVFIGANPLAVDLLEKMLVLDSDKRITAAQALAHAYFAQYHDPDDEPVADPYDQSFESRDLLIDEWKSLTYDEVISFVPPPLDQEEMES

IC50 [1] | IC50 [2] | Structure (SMILES)
48.5 nM | > 1000 nM | COc1nccc(-c2[nH]c(Cc3cccc(C(N)=O)c3)nc2-c2ccc(F)cc2)n1
62.8 nM | > 1000 nM | COc1nccc(-c2[nH]c(Cc3cccc(C#N)c3)nc2-c2ccc(F)cc2)n1
916 nM | > 1000 nM | COc1nccc(-c2c(-c3ccc(F)cc3)ncn2Cc2ccc(C(N)=O)cc2)n1
> 1000 nM | > 1000 nM | C[C@H](Nc1nccc(-c2ncn(Cc3cccc(C(N)=O)c3)c2-c2ccc(F)cc2)n1)c1ccccc1
148 nM | > 1000 nM | COc1ccc(CNc2nccc(-c3[nH]c(Cc4cccc(C#N)c4)nc3-c3ccc(F)cc3)n2)cc1
225 nM | > 1000 nM | COc1nccc(-c2c(-c3ccc(F)cc3)ncn2Cc2cccc(C(N)=O)c2)n1
55.6 nM | > 1000 nM | C[C@H](Nc1nccc(-c2c(-c3ccc(F)cc3)ncn2Cc2ccc(C(N)=O)cc2)n1)c1ccccc1
260 nM | > 1000 nM | COc1nccc(-c2c(-c3ccc(F)cc3)ncn2Cc2cccc(C#N)c2)n1
87.1 nM | > 1000 nM | C[C@H](Nc1nccc(-c2c(-c3ccc(F)cc3)ncn2Cc2ccc(C#N)cc2)n1)c1ccccc1
344 nM | > 1000 nM | NC(=O)c1cccc(Cn2cnc(-c3ccc(F)cc3)c2-c2ccnc(N)n2)c1
55.1 nM | > 1000 nM | C[C@H](Nc1nccc(-c2c(-c3ccc(F)cc3)ncn2Cc2cccc(C(N)=O)c2)n1)c1ccccc1
859 nM | > 1000 nM | COc1nccc(-c2c(-c3ccc(F)cc3)ncn2Cc2ccc(C#N)cc2)n1
95.4 nM | > 1000 nM | C[C@H](Nc1nccc(-c2[nH]c(Cc3cccc(C#N)c3)nc2-c2ccc(F)cc2)n1)c1ccccc1
> 1000 nM | > 1000 nM | COc1nccc(-c2ncn(Cc3cccc(C(N)=O)c3)c2-c2ccc(F)cc2)n1
78 nM | > 1000 nM | C[C@H](Nc1nccc(-c2[nH]c(Cc3cccc(C(N)=O)c3)nc2-c2ccc(F)cc2)n1)c1ccccc1
> 1000 nM | > 1000 nM | COc1nccc(-c2ncn(Cc3ccc(C(N)=O)cc3)c2-c2ccc(F)cc2)n1
> 1000 nM | > 1000 nM | C[C@H](Nc1nccc(-c2ncn(Cc3ccc(C(N)=O)cc3)c2-c2ccc(F)cc2)n1)c1ccccc1
191 nM | > 1000 nM | COc1ccc(CNc2nccc(-c3c(-c4ccc(F)cc4)ncn3Cc3cccc(C#N)c3)n2)cc1

IC50 [1] | IC50 [2] | Structure (SMILES)
140 nM | > 1000 nM | C[C@H](Nc1nccc(-c2c(-c3ccc(F)cc3)ncn2Cc2cccc(C#N)c2)n1)c1ccccc1
62.6 nM | > 1000 nM | N#Cc1cccc(Cn2cnc(-c3ccc(F)cc3)c2-c2ccnc(NC3CC3)n2)c1
4300 nM | – | Cc1cccc(-c2[nH]c(Cc3cccc(C(N)=O)c3)nc2-c2ccc3nccnc3c2)n1
> 1000 nM | > 1000 nM | COc1ccc(CNc2nccc(-c3ncn(Cc4cccc(C#N)c4)c3-c3ccc(F)cc3)n2)cc1
> 1000 nM | > 1000 nM | N#Cc1cccc(Cn2cnc(-c3ccnc(N)n3)c2-c2ccc(F)cc2)c1
> 1000 nM | > 1000 nM | NC(=O)c1cccc(Cn2cnc(-c3ccnc(N)n3)c2-c2ccc(F)cc2)c1
> 1000 nM | > 1000 nM | C[C@H](Nc1nccc(-c2ncn(Cc3cccc(C#N)c3)c2-c2ccc(F)cc2)n1)c1ccccc1
> 1000 nM | > 1000 nM | C[C@H](Nc1nccc(-c2ncn(Cc3ccc(C#N)cc3)c2-c2ccc(F)cc2)n1)c1ccccc1
> 1000 nM | > 1000 nM | COc1nccc(-c2ncn(Cc3ccc(C#N)cc3)c2-c2ccc(F)cc2)n1
> 1000 nM | > 1000 nM | N#Cc1cccc(Cn2cnc(-c3ccnc(NC4CC4)n3)c2-c2ccc(F)cc2)c1
822 nM | – | NC(=O)N(c1nc(-c2ccc(F)cc2)cs1)c1c(Cl)cccc1Cl
28 nM | > 1000 nM | N#Cc1cccc(Cc2nc(-c3ccc(F)cc3)c(-c3ccnc(N)n3)[nH]2)c1
31 nM | > 1000 nM | NC(=O)c1cccc(Cc2nc(-c3ccc(F)cc3)c(-c3ccnc(NC4CC4)n3)[nH]2)c1
54.4 nM | > 1000 nM | N#Cc1cccc(Cc2nc(-c3ccc(F)cc3)c(-c3ccnc(NC4CC4)n3)[nH]2)c1
> 1000 nM | > 1000 nM | NC(=O)c1cccc(Cn2cnc(-c3ccnc(NC4CC4)n3)c2-c2ccc(F)cc2)c1
101 nM | > 1000 nM | N#Cc1cccc(Cn2cnc(-c3ccc(F)cc3)c2-c2ccnc(N)n2)c1
27.6 nM | > 1000 nM | NC(=O)c1cccc(Cn2cnc(-c3ccc(F)cc3)c2-c2ccnc(NC3CC3)n2)c1
> 1000 nM | > 1000 nM | COc1nccc(-c2ncn(Cc3cccc(C#N)c3)c2-c2ccc(F)cc2)n1
